Data taken from ChEMBL document CHEMBL3132769, “Fragment growing to retain or alter the selectivity of anchored kinase hinge-binding fragments” (Medchemcomm, 2014).

Tests used:
[1] = target: T1, Interleukin-1 receptor-associated kinase 4 (Homo sapiens) (UniProt Q9NWZ3); test: Inhibition of human IRAK4 catalytic domain expressed in baculovirus assessed as substrate phosphorylation using fluorescence-labelled peptides as substrate at 0.06 uM after 90 mins by microfluidic peptide phosphorylation assay
T1 sequence (whole entry): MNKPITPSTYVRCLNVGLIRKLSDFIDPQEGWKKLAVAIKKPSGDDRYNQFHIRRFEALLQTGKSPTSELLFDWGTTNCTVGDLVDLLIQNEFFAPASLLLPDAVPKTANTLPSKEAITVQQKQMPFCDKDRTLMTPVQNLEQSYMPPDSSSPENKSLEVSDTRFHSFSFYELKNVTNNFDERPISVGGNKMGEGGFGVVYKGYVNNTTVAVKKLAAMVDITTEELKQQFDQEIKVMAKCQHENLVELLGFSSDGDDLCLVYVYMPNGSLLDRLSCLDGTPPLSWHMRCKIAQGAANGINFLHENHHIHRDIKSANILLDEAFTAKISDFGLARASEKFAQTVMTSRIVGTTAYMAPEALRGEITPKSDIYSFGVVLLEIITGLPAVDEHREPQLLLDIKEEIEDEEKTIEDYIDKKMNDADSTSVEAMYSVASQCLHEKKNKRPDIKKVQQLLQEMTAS

[2] = target: Receptor-type tyrosine-protein kinase FLT3 (Homo sapiens) (UniProt P36888); test: Inhibition of human FLT3 catalytic domain expressed in baculovirus assessed as substrate phosphorylation using fluorescence-labelled peptides as substrate at 70 uM after 90 mins by microfluidic peptide phosphorylation assay
Chain of Receptor-type tyrosine-protein kinase FLT3 (Homo sapiens) (P36888 whole entry, the tested form may be a part): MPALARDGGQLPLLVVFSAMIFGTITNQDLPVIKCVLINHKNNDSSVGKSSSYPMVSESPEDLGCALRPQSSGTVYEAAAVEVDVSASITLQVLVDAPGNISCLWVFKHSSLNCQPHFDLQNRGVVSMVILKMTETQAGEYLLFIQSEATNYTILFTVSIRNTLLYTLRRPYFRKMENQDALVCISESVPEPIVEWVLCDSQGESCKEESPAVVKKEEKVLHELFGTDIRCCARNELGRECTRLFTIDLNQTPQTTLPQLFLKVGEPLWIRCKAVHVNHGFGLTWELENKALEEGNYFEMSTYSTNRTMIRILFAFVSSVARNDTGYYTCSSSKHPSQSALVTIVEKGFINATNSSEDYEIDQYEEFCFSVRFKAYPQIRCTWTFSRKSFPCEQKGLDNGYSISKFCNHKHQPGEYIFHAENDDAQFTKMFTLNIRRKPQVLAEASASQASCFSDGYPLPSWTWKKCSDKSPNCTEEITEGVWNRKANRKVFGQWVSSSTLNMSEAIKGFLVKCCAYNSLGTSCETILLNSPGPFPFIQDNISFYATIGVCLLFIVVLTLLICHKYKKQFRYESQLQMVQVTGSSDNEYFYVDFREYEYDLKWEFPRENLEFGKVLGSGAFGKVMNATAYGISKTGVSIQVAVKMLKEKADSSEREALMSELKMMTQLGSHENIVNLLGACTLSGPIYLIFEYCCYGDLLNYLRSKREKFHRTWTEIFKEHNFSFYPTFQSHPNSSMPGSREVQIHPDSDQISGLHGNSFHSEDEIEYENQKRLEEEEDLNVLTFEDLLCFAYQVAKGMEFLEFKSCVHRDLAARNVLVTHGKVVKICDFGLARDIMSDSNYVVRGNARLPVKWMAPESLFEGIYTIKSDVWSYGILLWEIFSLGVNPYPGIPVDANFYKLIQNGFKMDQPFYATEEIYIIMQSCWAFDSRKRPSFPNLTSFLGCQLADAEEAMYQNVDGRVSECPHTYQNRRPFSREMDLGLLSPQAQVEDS

[3] = target: Tyrosine-protein kinase Lyn (Homo sapiens) (UniProt P07948); test: Inhibition of human full length LYN expressed in baculovirus assessed as substrate phosphorylation using fluorescence-labelled peptides as substrate at 70 uM after 90 mins by microfluidic peptide phosphorylation assay
Chain of Tyrosine-protein kinase Lyn (Homo sapiens) (P07948 2-512 limits assumed): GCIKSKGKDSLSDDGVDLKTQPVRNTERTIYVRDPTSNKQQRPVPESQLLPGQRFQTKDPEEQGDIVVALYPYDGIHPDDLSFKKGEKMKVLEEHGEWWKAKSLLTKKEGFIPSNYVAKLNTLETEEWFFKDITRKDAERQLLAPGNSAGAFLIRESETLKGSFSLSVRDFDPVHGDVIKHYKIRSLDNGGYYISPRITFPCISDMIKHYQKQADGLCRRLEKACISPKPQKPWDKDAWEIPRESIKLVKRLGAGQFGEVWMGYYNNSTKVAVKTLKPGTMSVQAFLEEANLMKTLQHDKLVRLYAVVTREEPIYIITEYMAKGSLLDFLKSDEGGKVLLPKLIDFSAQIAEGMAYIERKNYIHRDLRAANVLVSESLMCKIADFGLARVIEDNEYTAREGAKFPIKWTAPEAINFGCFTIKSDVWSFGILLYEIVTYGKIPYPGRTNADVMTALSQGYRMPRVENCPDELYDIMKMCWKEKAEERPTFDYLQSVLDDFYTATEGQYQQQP

[4] = target: MAP kinase-activated protein kinase 2 (Homo sapiens) (UniProt P49137); test: Inhibition of human full length MAPKAPK2 expressed in baculovirus assessed as substrate phosphorylation using fluorescence-labelled peptides as substrate at 420 uM after 90 mins by microfluidic peptide phosphorylation assay
Chain of MAP kinase-activated protein kinase 2 (Homo sapiens) (P49137 whole entry, looked up): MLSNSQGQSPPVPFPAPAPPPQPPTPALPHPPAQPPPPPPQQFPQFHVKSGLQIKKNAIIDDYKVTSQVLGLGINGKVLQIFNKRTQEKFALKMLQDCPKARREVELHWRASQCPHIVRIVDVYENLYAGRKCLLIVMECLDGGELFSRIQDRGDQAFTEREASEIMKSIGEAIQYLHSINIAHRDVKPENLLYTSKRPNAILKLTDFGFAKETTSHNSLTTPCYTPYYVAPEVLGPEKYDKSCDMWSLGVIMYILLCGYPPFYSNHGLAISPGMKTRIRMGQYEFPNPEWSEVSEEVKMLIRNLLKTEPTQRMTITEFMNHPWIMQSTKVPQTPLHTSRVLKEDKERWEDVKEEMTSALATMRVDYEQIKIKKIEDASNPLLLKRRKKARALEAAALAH

[5] = target: Calcium/calmodulin-dependent protein kinase type II subunit delta (Homo sapiens) (UniProt Q13557); test: Inhibition of human full length CAMK2D expressed in baculovirus assessed as substrate phosphorylation using fluorescence-labelled peptides as substrate at 420 uM after 90 mins by microfluidic peptide phosphorylation assay
Chain of Calcium/calmodulin-dependent protein kinase type II subunit delta (Homo sapiens) (Q13557 whole entry): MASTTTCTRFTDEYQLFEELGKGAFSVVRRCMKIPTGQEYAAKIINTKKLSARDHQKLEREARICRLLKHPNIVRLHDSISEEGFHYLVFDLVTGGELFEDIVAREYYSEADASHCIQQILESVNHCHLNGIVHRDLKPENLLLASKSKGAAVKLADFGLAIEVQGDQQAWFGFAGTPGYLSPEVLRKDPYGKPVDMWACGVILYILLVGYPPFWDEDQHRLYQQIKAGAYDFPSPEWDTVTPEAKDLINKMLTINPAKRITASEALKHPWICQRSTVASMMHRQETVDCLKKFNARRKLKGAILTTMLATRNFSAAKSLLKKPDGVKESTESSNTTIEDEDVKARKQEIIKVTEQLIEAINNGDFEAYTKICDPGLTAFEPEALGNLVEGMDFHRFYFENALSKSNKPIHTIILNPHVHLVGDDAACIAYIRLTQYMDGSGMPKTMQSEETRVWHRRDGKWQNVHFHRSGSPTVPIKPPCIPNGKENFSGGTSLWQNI

[6] = target: T2, Serine/threonine-protein kinase D2 (Homo sapiens) (UniProt Q9BZL6); test: Inhibition of human full length PKD2 expressed in baculovirus assessed as substrate phosphorylation using fluorescence-labelled peptides as substrate at 9 uM after 90 mins by microfluidic peptide phosphorylation assay
T2 sequence (whole entry): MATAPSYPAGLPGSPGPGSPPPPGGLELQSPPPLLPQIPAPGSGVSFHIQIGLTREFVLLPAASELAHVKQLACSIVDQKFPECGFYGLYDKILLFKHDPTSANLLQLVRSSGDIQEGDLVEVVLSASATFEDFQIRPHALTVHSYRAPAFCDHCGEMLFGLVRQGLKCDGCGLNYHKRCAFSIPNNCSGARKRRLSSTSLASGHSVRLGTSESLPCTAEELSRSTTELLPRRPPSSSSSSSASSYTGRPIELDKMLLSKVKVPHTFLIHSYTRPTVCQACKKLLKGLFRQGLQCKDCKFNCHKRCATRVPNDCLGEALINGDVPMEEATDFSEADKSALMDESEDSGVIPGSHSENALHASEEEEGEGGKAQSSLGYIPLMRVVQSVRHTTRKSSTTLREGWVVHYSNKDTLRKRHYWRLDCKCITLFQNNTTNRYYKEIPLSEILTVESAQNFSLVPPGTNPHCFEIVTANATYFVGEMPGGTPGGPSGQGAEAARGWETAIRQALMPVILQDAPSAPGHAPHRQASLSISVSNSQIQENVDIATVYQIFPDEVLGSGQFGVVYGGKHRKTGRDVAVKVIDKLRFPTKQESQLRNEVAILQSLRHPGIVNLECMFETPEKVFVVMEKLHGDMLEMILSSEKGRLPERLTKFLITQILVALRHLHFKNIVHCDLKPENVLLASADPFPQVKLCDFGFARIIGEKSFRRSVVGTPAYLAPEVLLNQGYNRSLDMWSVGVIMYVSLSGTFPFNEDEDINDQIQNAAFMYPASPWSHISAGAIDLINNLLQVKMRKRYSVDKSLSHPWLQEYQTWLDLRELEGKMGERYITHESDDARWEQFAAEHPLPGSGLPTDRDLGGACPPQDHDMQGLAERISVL

[7] = target: T3, Serine/threonine-protein kinase Chk1 (Homo sapiens) (UniProt O14757); test: Inhibition of human full length CHK1 expressed in baculovirus assessed as substrate phosphorylation using fluorescence-labelled peptides as substrate at 1000 uM after 90 mins by microfluidic peptide phosphorylation assay
T3 sequence (whole entry): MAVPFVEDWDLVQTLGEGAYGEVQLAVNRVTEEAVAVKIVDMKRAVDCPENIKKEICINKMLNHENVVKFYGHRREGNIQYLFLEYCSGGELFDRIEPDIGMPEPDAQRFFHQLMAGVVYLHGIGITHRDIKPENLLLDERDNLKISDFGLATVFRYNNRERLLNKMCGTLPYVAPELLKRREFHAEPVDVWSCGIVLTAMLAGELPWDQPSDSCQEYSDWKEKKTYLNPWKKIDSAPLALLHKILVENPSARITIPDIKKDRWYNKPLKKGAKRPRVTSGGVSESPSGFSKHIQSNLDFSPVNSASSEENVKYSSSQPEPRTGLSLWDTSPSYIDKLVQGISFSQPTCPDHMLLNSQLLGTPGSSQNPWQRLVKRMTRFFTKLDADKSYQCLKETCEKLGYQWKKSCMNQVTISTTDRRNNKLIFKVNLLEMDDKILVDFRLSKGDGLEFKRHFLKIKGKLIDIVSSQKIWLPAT

[8] = target: T4, Serine/threonine-protein kinase Sgk1 (Homo sapiens) (UniProt O00141); test: Inhibition of human truncated SGK1 expressed in baculovirus assessed as substrate phosphorylation using fluorescence-labelled peptides as substrate at […] after 90 mins by microfluidic peptide phosphorylation assay
T4 sequence (whole entry): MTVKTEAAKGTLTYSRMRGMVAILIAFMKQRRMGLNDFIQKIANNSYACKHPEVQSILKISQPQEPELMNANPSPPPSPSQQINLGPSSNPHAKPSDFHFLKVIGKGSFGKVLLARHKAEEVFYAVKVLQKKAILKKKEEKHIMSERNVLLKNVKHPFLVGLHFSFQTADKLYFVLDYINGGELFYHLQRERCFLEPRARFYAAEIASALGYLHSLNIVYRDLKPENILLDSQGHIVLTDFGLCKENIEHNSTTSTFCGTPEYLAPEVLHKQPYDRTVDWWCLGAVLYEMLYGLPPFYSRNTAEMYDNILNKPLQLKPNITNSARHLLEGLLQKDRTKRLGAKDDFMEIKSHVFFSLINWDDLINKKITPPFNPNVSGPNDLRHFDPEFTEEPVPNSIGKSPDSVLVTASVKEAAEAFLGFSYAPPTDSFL

For `NC1(Cc2ccc(Cl)cc2)CCN(c2ncnc3[nH]ccc23)CC1`, the inhibition [1] was 0%.

For `CNCc1ccc(-c2ncnc3[nH]cnc23)cc1`, the inhibition [2] was 36% and the inhibition [3] was 35%.

Compound `c1nc(N2CCOCC2)c2nc[nH]c2n1` has an inhibition [4] of 74% and an inhibition [5] of 63.5%.

Compound `NCC1CN(c2ncnc3[nH]c4cnccc4c23)CCO1` (stereo not drawn) has an inhibition [6] of 68%.

`c1cnc2[nH]ccc2c1` was tested, and the inhibition [7] was 52%.

In the case of `COC(=O)c1cnc(Nc2cnc(C#N)cn2)cc1NCC1CCNCC1`, the inhibition [8] is reported as 4.5%.
